The numbers were not newly measured in patent US11874283B2, “Method and compositions for the treatment and detection of endothelin-1 related kidney diseases” (MOREHOUSE SCHOOL OF MEDICINE, priority 2010, dated 2024), which cites them from elsewhere.

Ends that are not written are not given here.

The data set relates to ET-1 ELISA. Conditions: as determined by the manufacturer.
As for “ET-2: endothelin peptide cross-reacting in the ET-1 ELISA (CSCSSWLDKECVYFCHLDIIW; ends and bridges not checked; cysteine pairing not given here; UniProt P20800 49-69, looked up)”, the Cross reactivity was 45%. On to “ET-3: endothelin peptide cross-reacting in the ET-1 ELISA (CTCFTYKDKECVYYCHLDIIW; ends and bridges not checked; cysteine pairing not given here; UniProt P14138 97-117, looked up)”, for which the Cross reactivity is reported as 14%. As to “big ET-1: biologically inactive 38-amino acid precursor of ET-1 (CSCSSLMDKECVYFCHLDIIWVNTPEHVVPYGLGSPRS; ends and bridges not checked; cysteine pairing not given here; UniProt P05305 53-90, looked up)”, the Cross reactivity entry is on record as “less than 1%”.
